Results from EP0908457B1, “3-(1,2-benzisothiazol- and isoxazol-5-Y1)-2,4(1H,3H)-pyrimidinedione or thione and 3-(1,2-benzisothiazol- and isoxazol-5-y1)-4(3H)-pyrimidinone or thione herbicidal agents” (BASF AKTIENGESELLSCHAFT, priority 1997, dated 1999).

How the values were obtained:
[1] = system: Echinochloa oryzoides (Ard.) Fritsch.; test: Preemergence weed control under flooded paddy conditions, ECHORC (Watergrass (Calif.)); format: in vivo; conditions: preemergence, flooded paddy, rated 3-4 weeks after treatment
Cyperus iria = test: Preemergence weed control under flooded paddy conditions, CYPIR (Rice Flatsedge); format: in vivo; conditions: preemergence, flooded paddy, rated 3-4 weeks after treatment
[2] = system: Cyperus serotinus, Rottb.; test: Preemergence weed control under flooded paddy conditions, CYPSE (Flatsedge); format: in vivo; conditions: preemergence, rated 3-4 weeks after treatment
[3] = system: Monochoria vaginalis, Presl.; test: Preemergence weed control under flooded paddy conditions, MOOVA (Monochoria); format: in vivo; conditions: preemergence, flooded paddy, rated 3-4 weeks after treatment
Sagittaria pygmaea, L. = test: Preemergence weed control under flooded paddy conditions, SAGPY (Arrowhead (Pygmaea)); format: in vivo; conditions: preemergence, flooded paddy, rated 3-4 weeks after treatment
[4] = system: Oryza sativa, (L.) Tebonnet; test: Rice tolerance to post-transplant applications under flooded paddy conditions (Example 187), ORYSAT (Rice, Tebonnet); conditions: rated 3-4 weeks after treatment
Also: meaning of each grade not given here.

| Compound | herbicidal effect rating, ECHORC ([1]; Rate 0.0320 kg/ha) | herbicidal effect rating, ECHORC ([1]; Rate 0.0620 kg/ha) | herbicidal effect rating, ECHORC ([1]; Rate 0.1250 kg/ha) | herbicidal effect rating, ECHORC ([1]; Rate 0.2500 kg/ha) | herbicidal effect rating, ECHORC ([1]; Rate 0.5000 kg/ha) | herbicidal effect rating, CYPIR (Cyperus iria; Rate 0.0320 kg/ha) | herbicidal effect rating, CYPIR (Cyperus iria; Rate 0.0620 kg/ha) | herbicidal effect rating, CYPIR (Cyperus iria; Rate 0.1250 kg/ha) | herbicidal effect rating, CYPIR (Cyperus iria; Rate 0.2500 kg/ha) | herbicidal effect rating, CYPIR (Cyperus iria; Rate 0.5000 kg/ha) | herbicidal effect rating, CYPSE ([2]; Rate 0.0620 kg/ha) | herbicidal effect rating, CYPSE ([2]; Rate 0.1250 kg/ha) | herbicidal effect rating, CYPSE ([2]; Rate 0.2500 kg/ha) | herbicidal effect rating, CYPSE ([2]; Rate 0.5000 kg/ha) | herbicidal effect rating, MOOVA ([3]; Rate 0.0320 kg/ha) | herbicidal effect rating, MOOVA ([3]; Rate 0.0620 kg/ha) | herbicidal effect rating, MOOVA ([3]; Rate 0.1250 kg/ha) | herbicidal effect rating, MOOVA ([3]; Rate 0.2500 kg/ha) | herbicidal effect rating, MOOVA ([3]; Rate 0.5000 kg/ha) | herbicidal effect rating, SAGPY (Sagittaria pygmaea, L.; Rate 0.0320 kg/ha) | further results |
| --- | --- | --- | --- | --- | --- | --- | --- | --- | --- | --- | --- | --- | --- | --- | --- | --- | --- | --- | --- | --- | --- |
| COCCOC(=O)C(C)(C)Oc1ccc(C)cc1-c1nsc2ccc(-n3c(=O)cc(C(F)(F)F)n(C)c3=O)cc12 [Example 546, Propionic acid, 2-{{2-{5-[3,6-dihydro-3-methyl-2,6-dioxo-4-(trifluoromethyl)-1(2H)-pyrimidinyl]-1,2-benzisothiazol-3-yl}-p-tolyl}oxy}-2-methyl-, 2-methoxyethyl ester] | 4.1 | 4.3 | 4.6 | 9.0 | 9.0 | 3.0 | 4.0 | 6.0 | 9.0 | 2.0 | 0.0 | 9.0 | 9.0 | 0.0 | 6.0 | 7.0 | 7.0 | 9.0 | 9.0 | 0.0 | herbicidal effect rating, CYPSE ([2]; Rate 0.0320 kg/ha): 0.0; herbicidal effect rating, SAGPY (Sagittaria pygmaea, L.; Rate 0.0620 kg/ha): 0.0; herbicidal effect rating, SAGPY (Sagittaria pygmaea, L.; Rate 0.1250 kg/ha): 4.0; herbicidal effect rating, SAGPY (Sagittaria pygmaea, L.; Rate 0.2500 kg/ha): 9.0; herbicidal effect rating, SAGPY (Sagittaria pygmaea, L.; Rate 0.5000 kg/ha): 9.0; herbicidal effect rating ORYSAT ([4]; Rate 0.0320 kg/ha): 2.0; herbicidal effect rating ORYSAT ([4]; Rate 0.0620 kg/ha): 3.0; herbicidal effect rating ORYSAT ([4]; Rate 0.1250 kg/ha): 4.0; herbicidal effect rating ORYSAT ([4]; Rate 0.2500 kg/ha): 7.0; herbicidal effect rating ORYSAT ([4]; Rate 0.5000 kg/ha): 6.0 |
| Cc1ccc(OC(C)(C)C(=O)OC(C)C)c(-c2nsc3ccc(-n4c(=O)cc(C(F)(F)F)n(C)c4=O)cc23)c1 [Example 547, Propionic acid, 2-{{2-{5-[3,6-dihydro-3-methyl-2,6-dioxo-4-(trifluoromethyl)-1(2H)-pyrimidinyl]-1,2-benzisothiazol-3-yl}-p-tolyl}oxy}-2-methyl-, isopropyl ester] | 5.4 | 5.4 | 5.6 | 9.0 | 9.0 | 7.0 | 7.0 | 9.0 | 9.0 | 9.0 | 8.0 | 8.0 | 7.0 | 0.0 | 9.0 | 9.0 | 9.0 | 9.0 | 9.0 | 2.0 | herbicidal effect rating, CYPSE ([2]; Rate 0.0320 kg/ha): 6.0; herbicidal effect rating, SAGPY (Sagittaria pygmaea, L.; Rate 0.0620 kg/ha): 4.0; herbicidal effect rating, SAGPY (Sagittaria pygmaea, L.; Rate 0.1250 kg/ha): 4.0; herbicidal effect rating, SAGPY (Sagittaria pygmaea, L.; Rate 0.2500 kg/ha): 7.0; herbicidal effect rating, SAGPY (Sagittaria pygmaea, L.; Rate 0.5000 kg/ha): 3.0; herbicidal effect rating ORYSAT ([4]; Rate 0.0320 kg/ha): 2.0; herbicidal effect rating ORYSAT ([4]; Rate 0.0620 kg/ha): 3.0; herbicidal effect rating ORYSAT ([4]; Rate 0.1250 kg/ha): 4.0; herbicidal effect rating ORYSAT ([4]; Rate 0.2500 kg/ha): 4.0; herbicidal effect rating ORYSAT ([4]; Rate 0.5000 kg/ha): 3.0 |
| Cn1c(C(F)(F)F)cc(=O)n(-c2ccc3snc(-c4ccccc4OCC(N)=O)c3c2)c1=O [Example 548, Acetamide, 2-{o-{5-[3,6-dihydro-3-methyl-2,6-dioxo-4-(trifluoromethyl)-1(2H)-pyrimidinyl]-1,2-benzisothiazol-3-yl}phenoxy}-] | 2.9 | 3.7 | 4.9 | 9.0 | 6.0 | 2.0 | 6.0 | 8.0 | 9.0 | 0.0 | 9.0 | 9.0 | 9.0 | 9.0 | 8.0 | 9.0 | 9.0 | 9.0 | 9.0 | 0.0 | herbicidal effect rating, SAGPY (Sagittaria pygmaea, L.; Rate 0.0620 kg/ha): 0.0; herbicidal effect rating, SAGPY (Sagittaria pygmaea, L.; Rate 0.1250 kg/ha): 2.0; herbicidal effect rating, SAGPY (Sagittaria pygmaea, L.; Rate 0.2500 kg/ha): 4.0; herbicidal effect rating, SAGPY (Sagittaria pygmaea, L.; Rate 0.5000 kg/ha): 0.0; herbicidal effect rating ORYSAT ([4]; Rate 0.0320 kg/ha): 3.0; herbicidal effect rating ORYSAT ([4]; Rate 0.0620 kg/ha): 2.0; herbicidal effect rating ORYSAT ([4]; Rate 0.1250 kg/ha): 4.0; herbicidal effect rating ORYSAT ([4]; Rate 0.2500 kg/ha): 6.0; herbicidal effect rating ORYSAT ([4]; Rate 0.5000 kg/ha): 4.0 |
| Cn1c(C(F)(F)F)cc(=O)n(-c2ccc3snc(-c4ccccc4OCC(=O)C(C)(C)C)c3c2)c1=O [Example 549, 2,4(1H,3H)-Pyrimidinedione, 3-{3-[o-(3,3-dimethyl-2-oxobutoxy)phenyl)-1,2-benzisothiazol-5-yl}-1-methyl-6-(trifluoromethyl)-] | 3.0 | 3.6 | 5.1 | 9.0 | 9.0 | 7.0 | 9.0 | 9.0 | 9.0 | 9.0 | 0.0 | 2.0 | 9.0 | 9.0 | 9.0 | 9.0 | 9.0 | 9.0 | 9.0 | 0.0 | herbicidal effect rating, CYPSE ([2]; Rate 0.0320 kg/ha): 0.0; herbicidal effect rating, SAGPY (Sagittaria pygmaea, L.; Rate 0.0620 kg/ha): 0.0; herbicidal effect rating, SAGPY (Sagittaria pygmaea, L.; Rate 0.1250 kg/ha): 4.0; herbicidal effect rating, SAGPY (Sagittaria pygmaea, L.; Rate 0.2500 kg/ha): 4.0; herbicidal effect rating, SAGPY (Sagittaria pygmaea, L.; Rate 0.5000 kg/ha): 0.0; herbicidal effect rating ORYSAT ([4]; Rate 0.0320 kg/ha): 4.0; herbicidal effect rating ORYSAT ([4]; Rate 0.0620 kg/ha): 4.0; herbicidal effect rating ORYSAT ([4]; Rate 0.1250 kg/ha): 4.0; herbicidal effect rating ORYSAT ([4]; Rate 0.2500 kg/ha): 4.0; herbicidal effect rating ORYSAT ([4]; Rate 0.5000 kg/ha): 2.0 |
| Cc1ccc(C(=O)C(C)Oc2ccccc2-c2nsc3ccc(-n4c(=O)cc(C(F)(F)F)n(C)c4=O)cc23)cc1C (centres unmarked) [Example 550, 2,4(1H,3H)-Pyrimidinedione, 3-{-3-{o-[1-(3,4-dimethylbenzoyl)ethoxy]phenyl}-1,2-benzisothiazol-5-yl]-1-methyl-6-(trifluoromethyl)-] | 4.7 | 5.9 | 5.9 | 9.0 | 9.0 | 2.0 | 8.0 | 8.0 | 7.0 | 5.0 | 0.0 | 0.0 | 0.0 | 9.0 | 9.0 | 9.0 | 9.0 | 9.0 | 9.0 | 0.0 | herbicidal effect rating, CYPSE ([2]; Rate 0.0320 kg/ha): 0.0; herbicidal effect rating, SAGPY (Sagittaria pygmaea, L.; Rate 0.0620 kg/ha): 0.0; herbicidal effect rating, SAGPY (Sagittaria pygmaea, L.; Rate 0.1250 kg/ha): 0.0; herbicidal effect rating, SAGPY (Sagittaria pygmaea, L.; Rate 0.2500 kg/ha): 0.0; herbicidal effect rating, SAGPY (Sagittaria pygmaea, L.; Rate 0.5000 kg/ha): 0.0; herbicidal effect rating ORYSAT ([4]; Rate 0.0320 kg/ha): 0.0; herbicidal effect rating ORYSAT ([4]; Rate 0.0620 kg/ha): 0.0; herbicidal effect rating ORYSAT ([4]; Rate 0.1250 kg/ha): 0.0; herbicidal effect rating ORYSAT ([4]; Rate 0.2500 kg/ha): 0.0; herbicidal effect rating ORYSAT ([4]; Rate 0.5000 kg/ha): 0.0 |
